The results in this text go back to patent US6168798A, “Non-irritating composition for treating acne and other skin conditions” (Bristol-Myers Squibb Company, priority 1997, dated 2001).

Each structure is given as a SMILES string.

This series concerns isolated bovine corneas.

Experimental: The bovine corneal opacity and permeability assay (BCOP) was used to assess the ocular irritancy of test formulations to isolated bovine corneas. Bovine corneas, obtained as a by-product from freshly slaughtered animals, were mounted in special holders and exposed to the test formulations. An in vitro score was determined for each test material based on the induction of opacity and permeability to fluorescein in the isolated bovine corneas. In these experiments, the potential ocular irritancy of the composition formulated in accordance with the invention and exemplified in Table 1 was compared with that of the commercially-available comparative product. Ocular irritancy was measured by changes in opacity and permeability to fluorescein in isolated bovine corneas. Five corneas were treated with each test material. Based on changes in corneal opacity and permeability relative to control corneas, an in vitro score was determined. […]
After a minimum of one hour of incubation, the corneal holders with the corneas in place were removed from the incubator and the medium was removed from both compartments and replaced with fresh medium. The opacity was determined for each cornea using a Spectro Design OP-KIT opacitometer. Three corneas whose opacity readings were close to the median opacity for all of the corneas were selected as the negative control corneas. […]

In the case of `CCO` [ethanol (95%), ethanol], the “Irritation potential rating from in vitro score” value is on record as “moderate to severe”.
